According to patent publication US20240122865A1, “Methods of Protecting RNA” (Pfizer Inc., priority 2021, published 2024):
“And” between values parts separate entries of the source, which are not always exact repeats. Identical values can stand only once.

Legend:
Assay type in all cases: biochemical, Trichoderma atroviride
FgenL mRNA construct = test: Size Exclusion Base Hydrolysis Degradation Assay, FgenL; conditions: 25 mM amino acid; for T0 R1 peak area at 250 nm: FgenL 0.1 mg/mL, 50 mM CAPS, T=0, replicate 1; for T2 Avg, peak area as percentage of T=0 / T2 R1 peak area at 250 nm / T10 Avg, peak area as percentage of T=0 / T10 R1 peak area at 250 nm / T24 Avg, peak area as percentage of T=0 / T24 R1 peak area at 250 nm / T0 Avg, peak area as percentage of T=0: FgenL; for T2 Avg, peak area as percentage of T=0 / T2 R1 peak area at 250 nm / T10 Avg, peak area as percentage of T=0 / T10 R1 peak area at 250 nm / T24 Avg, peak area as percentage of T=0 / T24 R1 peak area at 250 nm: 50 mM CAPS pH 11, room temperature; for T2 Avg, peak area as percentage of T=0 / T2 R1 peak area at 250 nm: 2 hrs; for T2 R1 peak area at 250 nm / T10 R1 peak area at 250 nm / T24 R1 peak area at 250 nm: replicate 1; for T10 Avg, peak area as percentage of T=0 / T10 R1 peak area at 250 nm: 10 hrs; for T24 Avg, peak area as percentage of T=0 / T24 R1 peak area at 250 nm: 24 hrs; for T0 Avg, peak area as percentage of T=0: T=0 (reference)
Protocol: Basic assay procedure: RNA samples were diluted to 1.0 mg/mL in DNAase/RNAase free water. Amino acids were dissolved in water to a stock solution of 100 mM and a solution of 500 mM CAPS pH 11 was used. The two mRNA constructs tested were FgenL and Chi18. Each individual sample volume was 50 μL. To determine the amount of 1 M NaOH needed to adjust the final pH to 11.0 after the addition of all sample components, the sample volume was increased 100 fold (5 mL), the volume of 1 M NaOH recorded and this value was translated back down to the 50 μL sample volume.
The mRNA and amino acid were allowed to incubate for one hour prior to the addition of CAPS pH 11. All steps of the assay were conducted at room temperature.
Degradation reaction: After the CAPS addition, the samples were injected onto the Waters H-Class UPLC system to record the first timepoint, T=O. This resulting chromatogram was processed by integrating the area of absorbance at 250 nm for the mRNA construct. Immediately following this timepoint, the pH was adjusted to 11. Subsequent time points (2 hrs, 10 hrs, and 24 hrs) recorded the Absorbance Units (peak area) at 250 nm as a percentage of the peak area determined at T=O. Integration of the chromatogram for subsequent timepoints was conducted by analyzing the area of absorbance at 250 nm contained within the same time window in which the peak eluted in T=0 for the 100% intact mRNA.

Chi18 model RNA [1] = test: TapeStation Assay, Chi18 model RNA; set-up: Conc. chi18#1 / Conc. chi18#2: unit not given here; conditions: for % Control N = 1 / % Control N = 2 / % Control Avg.: Chi18 RNA, 20 mM amino acids, 50 mM CAPS pH 11, 50° C. 15 min; for % Control N = 1 / % Control N = 2: vs Time 0; for % Control Avg.: vs Time 0, Avg N=2; for Conc. chi18#1 / Conc. chi18#2: intact Chi18 RNA after 15 min at 50° C.; for Conc. chi18#1: 20 mM amino acids in 50 mM CAPS pH 11, run #1; for Conc. chi18#2: 20 mM amino acids in 50 mM CAPS pH 11, run #2
Protocol: (§1) These assays were performed with amino acids and compared to a no-degradation baseline control to gauge degree of protection imparted by the amino acid. Multiple functional assay approaches were used where differing endpoints were measured including a droplet digital PCR (ddPCR) assay where intact RNA sequence was quantitated, a size exclusion base hydrolysis degradation assay that used a size exclusion column to determine the degree of degradation occurring to an mRNA construct, and finally, a TapeStation assay that utilizes capillary electrophoresis and optical detection to measure intact RNA. […] Affinity selection by mass spectrometry (ASMS), native electrospray ionization mass spectrometry (nESI-MS) and nuclear magnetic resonance (NMR) may be used as several complementary approaches to ascertain compound binding to RNA. The latter techniques utilize MS to measure mass of bound compound alone (ASMS), or mass of RNA and bound compound (nESI-MS). The nESI-MS and NMR studies may be conducted to provide direct analytical quantification of resulting complex via measurement of mass (nESI-MS) or chemical shifts (NMR). The ASMS experiment is conducted to determine saturation binding of the compound to RNA where resulting apparent binding constants (KD,App) may be generated. Further descriptions of the functional and binding assays are provided in the section below.
(§2) In principle, samples are loaded to the instrument where electrophoresis separates component RNA's on the basis of mass, and subsequently analyzes these optically as they travel through the capillary.
(§3) RNA samples were diluted to the appropriate concentration to fall within the linear range of detection for the RNA ScreenTape Assay. Model Chi18 or FgenL RNAs were diluted to 50 ng/μL in 50 mM CAPS buffer pH 11. Amino acid stocks were made up in 50 mM CAPS pH 11 and re-adjusted to >pH 11 after solubilization. […] The samples were aliquoted to PCR tubes for each time point (Time 0 or 15 minutes). Degradation reaction: Samples were incubated at 50° C. for 0 to 15 minutes in a thermocycler, removed at the appropriate time point and placed on ice. Time 0 samples remained on ice.

FgenL model RNA = test: TapeStation Assay, FgenL model RNA; set-up: Conc. FgenL#1 / Conc. FgenL#2: unit not given here; conditions: for % Control N = 1 / % Control N = 2 / % Control Average: FgenL RNA, 20 mM amino acids, 50 mM CAPS pH 11, 50° C. 15 min; for % Control N = 1 / % Control N = 2: vs Time 0; for Conc. FgenL#1 / Conc. FgenL#2: intact FgenL RNA after 15 min at 50° C.; for Conc. FgenL#1: 20 mM amino acids in 50 mM CAPS pH 11, run #1; for Conc. FgenL#2: 20 mM amino acids in 50 mM CAPS pH 11, run #2; for % Control Average: vs Time 0, Avg N=2
Protocol: as §1, §2, §3

Chi18 model RNA [2] = test: Droplet Digital Polymerase Chain Reaction (ddPCR) Assay, Chi18; conditions: percent protection, pH 11.0, 30° C., 16 hours, n = 2
Protocol: The ddPCR assays measure RNA integrity by converting intact RNA to cDNA by reverse transcription, then performing digital PCR in thousands of nanoliter-sized droplets for each sample. PCR is performed within each droplet, which allows for more sensitive detection of subtle changes in RNA concentration compared to traditional PCR or qPCR. Additionally, primers/probes specific to the 5′ end of the RNA/cDNA transcript(s) are used to assess fragment integrity—e.g. degraded RNA will have fewer 5′ positive droplets. The BioRad QX200 Droplet Digital PCR System was used for the ddPCR workflow.
Basic assay procedure: RNA samples (Chi18 or FgenL fragments) were diluted to 25 fg/μL or 10 fg/μL, respectively, in 50 mM […] buffer pH 11.0. Amino acid stocks were made up in 50 mM CAPS buffer, pH 11.0 and subsequently re-adjusted to pH 11.0, post solubilization. Amino acid stocks were tested in a dose-response format to determine EC50. An amino acid dilution plate containing a ˜300 mM (or appropriate) top-concentration of amino acid in 50 mM CAPS buffer was serially (half-log) diluted for 10 times. 0.6 μL of this compound dilution plate was spotted into a 96-well PCR plate (Thermo). Sample RNAs were added (6 μL) and incubated with test amino acid as described below.
Degradation reaction: Treated RNAs were incubated for 16 hours at 30° C. for Chi18 samples or 44° C. for FgenL samples. Upon completion of the degradation reaction, cDNA was made from the intact RNA by Reverse Transcription and ddPCR run for each sample (96 well plates). Positive 5′ droplet values were divided by the total accepted droplet values for each sample and a ratio value generated for each sample.
EC50 was determined by using a four parameter logistic equation: Y=A+((B−A)/(1+(C/X)D)); where Y is percent protection, X is compound concentration, A and B are minimum and maximum asymptotes, respectively, C is EC50, and D is Hill slope.

Row | SMILES | T0 R1 peak area at 250 nm (FgenL mRNA construct) | T2 Avg, peak area as percentage of T=0 (FgenL mRNA construct) | T2 R1 peak area at 250 nm (FgenL mRNA construct) | T10 Avg, peak area as percentage of T=0 (FgenL mRNA construct) | T10 R1 peak area at 250 nm (FgenL mRNA construct) | T24 Avg, peak area as percentage of T=0 (FgenL mRNA construct) | T24 R1 peak area at 250 nm (FgenL mRNA construct) | T0 Avg, peak area as percentage of T=0 (FgenL mRNA construct) | % Control N = 1 (Chi18 model RNA [1]) | % Control N = 2 (Chi18 model RNA [1]) | % Control Avg. (Chi18 model RNA [1]) | Conc. chi18#1 (Chi18 model RNA [1]) | Conc. chi18#2 (Chi18 model RNA [1]) | % Control N = 1 (FgenL model RNA) | % Control N = 2 (FgenL model RNA) | Conc. FgenL#1 (FgenL model RNA) | Conc. FgenL#2 (FgenL model RNA) | EC50 (Chi18 model RNA [2]) | % Control Average (FgenL model RNA) | further results
1 | C[C@H](N)C(=O)O [Alanine] | 17478 | 44.3% | 7051 | 0.0% | 0 | 0.0% | 0 | 100.0% | 35.3% | 51.4% | 43.3% | 18.8 | 27.2 | 28.8% | 23.2% | 9.93 | 8.05 | > 30 mM | – | –
2 | N=C(N)NCCC[C@H](N)C(=O)O [Arginine] | 14624 | 0.0% | 0 | 0.0% | 0 | 0.0% | 0 | 100.0% | 5.2% | 4.7% | 4.9% | 2.78 | 2.46 | 4.2% | 3.3% | 1.46 | 1.15 | 7.6 mM | 3.8% | –
3 | NC(=O)C[C@H](N)C(=O)O [Asparagine] | 14320 | 35.9% | 6791 | 0.0% | 0 | 0.0% | 0 | 100.0% | 21.0% | 26.7% | 23.8% | 11.2 | 14.1 | 21.9% | 15.0% | 7.56 | 5.19 | 4.9 mM | 18.4% | –
4 | N[C@@H](CC(=O)O)C(=O)O [Aspartic acid] | 17497 | 0.0% | 0 | 0.0% | 0 | 0.0% | 0 | 100.0% | 52.5% | 53.5% | 53.0% | 28 | 28.3 | 107.0% | 91.1% | 36.9 | 31.6 | 6.1 mM | 99.0% | –
5 | N[C@@H](CS)C(=O)O [Cysteine] | – | – | – | – | – | 0.0% | 0 | 100.0% | 4.5% | 3.5% | 4.0% | 2.39 | 1.85 | 4.9% | 5.9% | 1.7 | 2.05 | > 30 mM | 5.4% | T0 R1 peak area at 250 nm (FgenL mRNA construct; listed as Cys): 23851 and 18041; T2 R1 peak area at 250 nm (FgenL mRNA construct; listed as Cys): 17633 and 6085; T2 Avg, peak area as percentage of T=0 (FgenL mRNA construct; listed as Cys): 58.8% and 30.1%; T10 R1 peak area at 250 nm (FgenL mRNA construct; listed as Cys): 3767 and 0; T10 Avg, peak area as percentage of T=0 (FgenL mRNA construct; listed as Cys): 8.8% and 0.0%
6 | N[C@@H](CCC(=O)O)C(=O)O [Glutamic acid] | 14529 | 73.9% | 10330 | 39.7% | 8449 | 0.0% | 0 | 100.0% | 76.0% | 94.5% | 85.3% | 40.5 | 50 | 89.9% | 76.1% | 31 | 26.4 | 6.7 mM | 83.0% | –
